What is called IC80 is the concentration needed for an effect of 80%. By IC50 is commonly meant the midpoint of a concentration-inhibition curve. High values mean weaker potency, low ones greater potency.

In experiment [1] the test system is Aspergillus fumigatus. Put plainly: Compound was tested in vitro for antifungal activity against Aspergillus fumigatus (CF1004). In kind it is functional.
The subject of experiment [2] is Candida albicans. The experiment can be described thus: Compound was tested in vitro for antifungal activity against Candida albicans (CY3003). Format: functional.
In the next experiment the test system is Cryptococcus neoformans. Put plainly: Compound was tested in vitro for antifungal activity against Cryptococcus neoformans (CY1057).
Experiment [3] relates to Aspergillus fumigatus. The experiment can be described thus: Compound was tested in vitro for antifungal activity against Aspergillus fumigatus (CF1004) in experiment 2. In kind it is functional.
The test system of experiment [4] is Candida albicans. Put plainly: Compound was tested in vitro for antifungal activity against Cryptococcus neoformans (CY1057) in experiment 2. In kind it is functional.
The target in experiment [5] is Lanosterol 14-alpha demethylase (Candida albicans) (UniProt P10613). The experiment can be described thus: In vitro inhibition of cytochrome P450 lanosterol C14 demethylase in Candida albicans CY1005.

Structures are written as SMILES. In brackets after ≈: the same amount, converted by molar mass. Where only a bound is given, the exact number is not on record here.

Lanosterol 14-alpha demethylase (Candida albicans), sequence (P10613 whole entry, looked up): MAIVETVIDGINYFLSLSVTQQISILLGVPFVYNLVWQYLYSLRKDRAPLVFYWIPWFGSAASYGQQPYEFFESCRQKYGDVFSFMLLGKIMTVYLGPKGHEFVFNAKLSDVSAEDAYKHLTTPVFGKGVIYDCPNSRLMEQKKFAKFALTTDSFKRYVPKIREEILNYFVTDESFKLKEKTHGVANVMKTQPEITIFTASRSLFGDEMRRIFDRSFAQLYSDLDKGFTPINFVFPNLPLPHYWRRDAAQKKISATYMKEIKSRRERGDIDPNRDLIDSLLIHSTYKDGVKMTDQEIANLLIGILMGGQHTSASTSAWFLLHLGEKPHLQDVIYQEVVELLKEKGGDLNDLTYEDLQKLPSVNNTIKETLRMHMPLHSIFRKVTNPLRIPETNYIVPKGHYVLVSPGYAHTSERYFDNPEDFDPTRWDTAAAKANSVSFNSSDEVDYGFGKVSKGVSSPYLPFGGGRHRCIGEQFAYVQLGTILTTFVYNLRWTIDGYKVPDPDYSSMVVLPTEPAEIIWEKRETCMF

In the case of `CCc1ccc(CC[C@@H]2CCC(C)(C)/C(=N/O)[C@H]2Cn2cncn2)cc1`, the values for the IC80 in the experiment with Aspergillus fumigatus [1], in the experiment with Candida albicans [2] and with Cryptococcus neoformans were 0.0011 µg/mL (≈ 0.0031 µM), 0.023 µg/mL (≈ 0.0649 µM) and 130 µg/mL (≈ 367 µM), respectively.
The corresponding values for `COC1[C@@H](Cn2cncn2)[C@H](COc2ccc(OC(F)(F)F)cc2)CCC1(C)C` (stereo partly specified) are 56 µg/mL (≈ 135 µM), 0.18 µg/mL (≈ 0.435 µM) and 0.51 µg/mL (≈ 1.23 µM).
For `CC(O)c1ccc(CC[C@@H]2CCC(C)(C)/C(=N/O)[C@H]2Cn2cncn2)cc1` (stereo partly specified) the same measures were 21 µg/mL (≈ 56.7 µM), over 200 µg/mL and over 200 µg/mL.
`OC(Cn1cncn1)(Cn1cncn1)c1ccc(F)cc1F` [FLUCONAZOLE]: the IC80 was over 200 µg/mL with Aspergillus fumigatus [3]; 150 µg/mL (≈ 490 µM) with Aspergillus fumigatus [1]; 1.3 µg/mL (≈ 4.24 µM) in the experiment on Candida albicans [2]; 2.6 µg/mL (≈ 8.49 µM) in the experiment with Candida albicans [4]; 6.2 µg/mL (≈ 20.2 µM) in the experiment with Cryptococcus neoformans.
For `CC1(C)CC[C@@H](COc2ccc(OC(F)(F)F)cc2)[C@H](Cn2cncn2)C1OCCO` (stereo partly specified), the 80% effect concentration (IC80) was determined as 110 µg/mL (≈ 248 µM) with Aspergillus fumigatus [1], 0.39 µg/mL (≈ 0.879 µM) in the experiment on Candida albicans [2] and 5.2 µg/mL (≈ 11.7 µM) in the experiment on Cryptococcus neoformans.
The corresponding values for `CCc1ccc(CC[C@@H]2CCC(C)(C)C(OCCO)[C@H]2Cn2cncn2)cc1` (stereo partly specified) are over 200 µg/mL, 0.00086 µg/mL (≈ 0.00223 µM) and 0.36 µg/mL (≈ 0.934 µM).
On to `CCc1ccc(CC[C@@H]2CCC(C)(C)[C@H](OC)[C@H]2Cn2cncn2)cc1`, for which the figures for the concentration for an effect of 80% (IC80) with Aspergillus fumigatus [1], in the experiment on Candida albicans [2] and in the experiment with Cryptococcus neoformans were over 200 µg/mL, 0.0042 µg/mL (≈ 0.0118 µM) and 0.74 µg/mL (≈ 2.08 µM), respectively. In experiment [5], this compound gave an IC50 of 0.01 µg/mL (≈ 0.0281 µM).
Consider `CC(=O)c1ccc(CC[C@@H]2CCC(C)(C)/C(=N/O)[C@H]2Cn2cncn2)cc1`, for which the 80% effect concentration (IC80) in the experiment with Aspergillus fumigatus [1] was 60 µg/mL (≈ 163 µM); in the experiment on Candida albicans [2], over 200 µg/mL; with Cryptococcus neoformans, over 200 µg/mL.
On to `CO/N=C1\[C@@H](Cn2cncn2)[C@H](COc2ccc(OC(F)(F)F)cc2)CCC1(C)C`, for which the concentration for an effect of 80% (IC80) in the experiment on Aspergillus fumigatus [1] was 0.4 µg/mL (≈ 0.938 µM); in the experiment on Candida albicans [2], 0.12 µg/mL (≈ 0.281 µM); with Cryptococcus neoformans it was 7.6 µg/mL (≈ 17.8 µM).
For `CC1(C)CC[C@@H](COc2ccc(OC(F)(F)F)cc2)[C@H](Cn2cncn2)/C1=N\O` the same measures were 0.17 µg/mL (≈ 0.412 µM), 0.35 µg/mL (≈ 0.849 µM) and over 200 µg/mL.
The corresponding values for `CCc1ccc(CC[C@@H]2CCC(C)(C)/C(=N/OC)[C@H]2Cn2cncn2)cc1` are 0.064 µg/mL (≈ 0.174 µM), 0.024 µg/mL (≈ 0.0651 µM) and 0.48 µg/mL (≈ 1.3 µM).

These data come from ChEMBL document CHEMBL1130883, “Modeling, synthesis and biological activity of novel antifungal agents (1)” (Bioorg Med Chem Lett, 1998).
